Target: T1, Solute carrier family 22 member 6 (Rattus norvegicus, UniProt O35956)
T1 sequence (O35956 whole entry): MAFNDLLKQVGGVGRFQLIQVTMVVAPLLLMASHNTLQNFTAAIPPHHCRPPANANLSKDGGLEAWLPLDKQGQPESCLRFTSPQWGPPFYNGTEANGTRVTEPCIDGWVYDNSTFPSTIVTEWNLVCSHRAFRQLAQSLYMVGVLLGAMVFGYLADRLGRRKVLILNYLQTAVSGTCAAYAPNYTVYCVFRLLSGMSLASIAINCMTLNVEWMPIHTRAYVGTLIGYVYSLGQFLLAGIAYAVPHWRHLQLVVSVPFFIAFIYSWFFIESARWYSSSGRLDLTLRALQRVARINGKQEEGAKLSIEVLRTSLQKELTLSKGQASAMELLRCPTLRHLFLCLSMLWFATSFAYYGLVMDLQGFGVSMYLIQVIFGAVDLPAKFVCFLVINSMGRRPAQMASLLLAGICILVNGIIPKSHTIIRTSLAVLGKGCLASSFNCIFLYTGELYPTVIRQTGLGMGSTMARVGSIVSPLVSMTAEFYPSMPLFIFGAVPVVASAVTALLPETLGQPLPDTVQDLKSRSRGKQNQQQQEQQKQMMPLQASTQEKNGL
Test: TP_TRANSPORTER: inhibition of PAH uptake (PAH: 10 uM, Corticosterone: 500 uM) in Xenopus laevis oocytes
Format: functional, cell-based
Settings: oocyte

Structure (SMILES): C[C@]12C[C@H](O)[C@H]3[C@@H](CCC4=CC(=O)CC[C@@]43C)[C@@H]1CC[C@@H]2C(=O)CO [CORTICOSTERONE]
- Activity: inhibitor [(at a rough estimate) 25 % of control]

From ChEMBL document CHEMBL2074226, “Molecular evidence of organic ion transporters in the rat adrenal cortex with adrenocorticotropin-regulated zonal expression” (Endocrinology, 2003)
